Measured values from patent US20170066717A1, “NEW PHENYLAZETIDINECARBOXYLATE OR -CARBOXAMIDE COMPOUNDS” (INVENTIVA, priority 2014, published 2017).

How the values were obtained:
NURR-1/RXRα = biological target: T1, NURR-1/RXRα (Homo sapiens, UniProt P19793); assay: Transactivation test, NURR-1-Gal4/RXRα, luciferase reporter in Cos-7 cells; assay type: cell-based; settings: for Emax: COS-7, induction level relative to reference XCT0135908 at 2×10^−5 M (=100%), read-out: hNurr1_RXRaFL Emax (%); for EC50: Cos-7 cells, NURR-1-Gal4/RXRα, luciferase reporter, read-out: hNurr1_RXRaFL EC50
T1 construct: expressed in transfected cells; host or cells: Cos-7 cells
T1 sequence (P19793 whole entry, the tested form may be a part): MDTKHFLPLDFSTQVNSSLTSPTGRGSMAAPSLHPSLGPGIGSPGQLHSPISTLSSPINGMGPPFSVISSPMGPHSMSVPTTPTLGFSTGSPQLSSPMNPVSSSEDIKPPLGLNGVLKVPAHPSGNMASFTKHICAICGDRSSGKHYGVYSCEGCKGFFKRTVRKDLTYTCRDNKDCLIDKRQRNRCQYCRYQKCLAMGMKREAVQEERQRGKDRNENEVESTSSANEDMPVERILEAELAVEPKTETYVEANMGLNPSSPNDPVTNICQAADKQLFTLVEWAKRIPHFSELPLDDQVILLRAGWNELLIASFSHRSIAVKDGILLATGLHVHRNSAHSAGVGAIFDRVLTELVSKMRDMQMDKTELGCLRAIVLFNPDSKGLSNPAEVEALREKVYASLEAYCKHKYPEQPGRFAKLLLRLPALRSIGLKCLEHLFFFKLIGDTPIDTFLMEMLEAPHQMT
T1 sequence (P43354 whole entry partner, the tested form may be a part): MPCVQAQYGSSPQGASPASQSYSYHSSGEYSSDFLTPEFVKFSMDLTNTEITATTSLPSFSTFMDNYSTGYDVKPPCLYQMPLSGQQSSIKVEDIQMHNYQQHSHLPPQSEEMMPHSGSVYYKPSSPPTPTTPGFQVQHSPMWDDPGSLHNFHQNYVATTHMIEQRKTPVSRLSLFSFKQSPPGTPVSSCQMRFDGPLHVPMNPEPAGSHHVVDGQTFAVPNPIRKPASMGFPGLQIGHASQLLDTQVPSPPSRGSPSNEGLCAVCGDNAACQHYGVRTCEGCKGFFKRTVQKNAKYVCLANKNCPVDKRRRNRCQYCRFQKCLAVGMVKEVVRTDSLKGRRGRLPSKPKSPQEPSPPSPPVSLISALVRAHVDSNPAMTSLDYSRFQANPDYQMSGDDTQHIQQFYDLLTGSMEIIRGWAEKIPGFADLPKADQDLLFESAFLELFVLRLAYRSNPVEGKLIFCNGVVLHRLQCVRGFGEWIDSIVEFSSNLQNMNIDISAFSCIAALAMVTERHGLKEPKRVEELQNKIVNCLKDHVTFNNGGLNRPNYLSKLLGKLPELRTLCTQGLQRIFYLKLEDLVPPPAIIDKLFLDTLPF
T1 sequence (P04386 1-147 partner limits assumed): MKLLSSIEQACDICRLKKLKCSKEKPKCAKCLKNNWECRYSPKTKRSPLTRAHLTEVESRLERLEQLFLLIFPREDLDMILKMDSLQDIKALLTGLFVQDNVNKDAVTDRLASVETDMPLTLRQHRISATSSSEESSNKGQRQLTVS

NURR-1/RXRγ = biological target: T2, NURR-1/RXRγ (Homo sapiens, UniProt P48443); assay: Transactivation test, NURR-1-Gal4/RXRγ, luciferase reporter in Cos-7 cells; assay type: cell-based; settings: for Emax: COS-7, induction level relative to reference XCT0135908 at 2×10^−5 M (=100%), read-out: hNurr1_RXRgFL Emax (%); for EC50: Cos-7 cells, NURR-1-Gal4/RXRγ, luciferase reporter, read-out: hNurr1_RXRgFL EC50
T2 construct: expressed in transfected cells; host or cells: Cos-7 cells
T2 sequence (P48443 whole entry, the tested form may be a part): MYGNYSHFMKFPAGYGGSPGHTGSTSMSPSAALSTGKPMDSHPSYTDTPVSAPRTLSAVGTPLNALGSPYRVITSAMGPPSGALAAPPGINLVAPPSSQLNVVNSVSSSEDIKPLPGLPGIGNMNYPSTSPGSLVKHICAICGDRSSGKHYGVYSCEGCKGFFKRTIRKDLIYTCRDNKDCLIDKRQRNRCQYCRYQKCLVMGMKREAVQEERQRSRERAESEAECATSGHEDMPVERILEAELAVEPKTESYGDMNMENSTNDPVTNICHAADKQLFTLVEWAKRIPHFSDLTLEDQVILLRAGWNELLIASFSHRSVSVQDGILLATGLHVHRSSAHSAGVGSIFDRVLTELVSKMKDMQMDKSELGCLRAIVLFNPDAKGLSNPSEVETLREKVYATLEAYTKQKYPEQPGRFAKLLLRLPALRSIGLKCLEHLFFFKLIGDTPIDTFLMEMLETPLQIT
T2 sequence (P43354 whole entry partner, the tested form may be a part): as the sequence (P43354 whole entry partner, the tested form may be a part) above
T2 sequence (P04386 1-147 partner limits assumed): as the sequence (P04386 1-147 partner limits assumed) above

[1] = induction level relative to reference XCT0135908 at 2×10^−5 M (=100%)

Emax (NURR-1/RXRα) [%]	EC50 (NURR-1/RXRα) [nM]	Emax (NURR-1/RXRγ) [%]	EC50 (NURR-1/RXRγ) [nM]	hNurr1_RXRaFL Emax (%) (NURR-1/RXRα; [1])	hNurr1_RXRgFL Emax (%) (NURR-1/RXRγ; [1])	SMILES
105	32	102	116	–	–	O=C(O)C1CN(c2cccc(-c3cc(F)cc(C(F)(F)F)c3)c2)C1 [Example 13, 1-[3-[3-fluoro-5-(trifluoromethyl)phenyl]phenyl]azetidine-3-carboxylic acid]
82	995	85	2090	–	–	CNS(=O)(=O)c1cn(-c2cccc(N3CC(C(=O)O)C3)c2)c2ccc(C(F)(F)F)cc12 [Example 137]
58	33	42	31	–	–	O=C(O)C1CN(c2cccc(-c3cc(C(F)(F)F)ccc3OCCc3ccccc3)c2)C1 [Example 93, 1-[3-[2-phenyethyloxy-5-(trifluromethyl)phenyl]phenyl]azetidine-3-carboxylic acid]
119	165	114	232	–	–	Cc1cc(-c2cccc(Cl)c2)cc(N2CC(C(=O)O)C2)c1 [Example 27, 1-[3-[3-chlorophenyl]-5-methylpehnyl]azetidine-3-carboxylic acid]
80	0.69	63	4	–	–	CN1CC2(CCC2)Oc2cc(C(F)(F)F)cc(-c3cccc(N4CC(C(=O)O)C4)c3)c21 [Example 203, sodium 1-[3-[4-methul-7-(trifluoromethyl)spiro[3H-1,4-benzoxazine-2,1′-cyclobutane]-5-yl]phenyl]azetidine-3-carboxylate]
109	25	131	41	–	–	Cc1cn(-c2cccc(N3CC(C(=O)NCC(C)C)C3)c2)c2ccc(C(F)(F)F)cc12 [Example 167]
87	2090	69	> 5000	–	–	Cc1cc(-c2cccc(C(C)(C)O)c2)cc(N2CC(C(=O)O)C2)c1 [Example 20, 1-[3-[3-(1-hydroxy-1-methylethyl)phenyl]-5-methylphenyl]azetidine-3-carboxylic acid]
91	368	95	542	–	–	COc1ccc2c(ccn2-c2cc(C)cc(N3CC(C(=O)O)C3)c2)c1 [Example 47, 1-[3-(5-methoxyindol-1-yl)-5-methylphenyl]azetidine-3-carboxylic acid]
123	7	125	9	–	–	Cc1cn(-c2cccc(N3CC(C(=O)NC4COC4)C3)c2)c2ccc(C(F)(F)F)cc12 [Example 163, 1-[3-[3-methyl-5-(trifluoromethyl)indol-1-yl]phenyl]-N-(oxetan-3-yl)azetidine-3-carboxamide]
87	181	111	455	–	–	Cc1cn(-c2cccc(N3CC(C(=O)NCCN(C)C)C3)c2)c2ccc(C(F)(F)F)cc12 [Example 153, N-(2-dimethylaminoethyl)-1-[3-[3-methyl-5-(trifluoromethyl)indol-1-yl]phenyl]azetidine-3-carboxamide]
127	9	143	12	–	–	CCCNc1ccc(C(C)C)cc1-c1cccc(N2CC(C(=O)O)C2)c1 [Example 68, 1-[3-[5-isopropyl-2-(propylamino)phenyl]phenyl]azetidine-3-carboxylic acid]
67	423	105	1200	–	–	O=C(O)C1CN(c2cccc(-c3cnc(Cl)c(C(F)(F)F)c3)c2)C1 [Example 77, 1-[3-[6-chloro-5-(trifluoromethyl)-3-pyridyl]phenyl]azetidine-3-carboxylic acid]
104	7	109	10	–	–	Cc1cn(-c2cccc(N3CC(C(=O)NCC4CC4)C3)c2)c2ccc(C(F)(F)F)cc12 [Example 177, N-(cyclopropylmethyl)-1-[3-[3-methyl-5-(trifluoromethyl)indol-1-yl]phenyl]azetidine-3-carboxamide]
99	53	84	119	–	–	Cc1cc(-c2cccc(N3CCCCC3)c2)cc(N2CC(C(=O)O)C2)c1 [Example 17, 1-[3-methyl-5-[3-(1-piperidyl)phenyl]phenyl]azetidine-carboxylic acid]
111	186	101	461	–	–	Cc1cc(-c2cccc(N3CCOCC3)c2)cc(N2CC(C(=O)O)C2)c1 [Example 6, 1-[3-methyl-5-(3-morpholinophenyl)phenyl]azetidine-3-carboxylic acid]
69	60	80	73	–	–	CCCOc1ccc(C(F)(F)F)cc1-c1cccc(N2CC(C(=O)O)C2)c1 [Example 88, 1-[3-[2-propoxy-5-(trifluromethyl)phenyl]phenyl]azetidine-3-carboxylic acid]
140	449	121	1000	–	–	O=C(O)C1CN(c2cccc(-c3ncc(Cl)c4ccccc34)c2)C1 [Example 36, 1-[3-(4-chloro-1-isoquinolyl)phenyl]azetidine-3-carboxylic acid]
95	4	73	7	–	–	Cc1cn(-c2cccc(N3CC(C(=O)NS(=O)(=O)C(F)(F)F)C3)c2)c2ccc(C(F)(F)F)cc12 [Example 151, 1-[3-[3-methyl-5-(trifluoromethyl)indol-1-yl]phenyl]-N-(trifluoromethylsulfonyl)azetidine-3-carboxamide]
104	9	120	12	–	–	CC(C)c1cc2c(c(-c3cccc(N4CC(C(=O)O)C4)c3)c1)CCC(C)(C)O2 [Example 70, 1-[3-(7-isopropyl-2,2-dimethylchroman-5-yl)phenyl]azetidine-3-carboxylic acid]
–	1	–	2	126	114	Cc1cc(N2CC(C(=O)O)C2)cc(-n2cc(Cl)c3cc(C(F)(F)F)ccc32)c1 [Example 57, 1-[3-[3-chloro-5-(triflurooemthyl)indol-1-yl]-5-methylphenyl]azetidine-3-carboxylic acid]
108	7	108	8	–	–	O=C(O)C1CN(c2cccc(-n3ccc4cc(C(F)(F)F)ccc43)c2)C1 [Example 44, 1-[3-[5-(trifluoromethyl)indol-1-yl]phenyl]azetidine-3-carboxylic acid]
40	898	24	1700	–	–	Cc1cc(N2CC(C(=O)O)C2)cc(S(=O)(=O)n2cc(C)c3cc(C(F)(F)F)ccc32)c1 [Example 60, 1-[3-methyl-5-[3-methyl-5-(trifluoromethyl)indol-1-yl]sulfonylphenyl]azetidine-3-carboxylic acid]
80	189	73	218	–	–	Cc1cc(N2CC(C)(C(=O)O)C2)cc(-n2cc(C)c3cc(C(F)(F)F)ccc32)c1 [Example 55, 3-methyl-1-[3-methyl-5-[3-methyl-5-(trifluoromethyl)indol-1-yl]phenyl]azetidine-3-carboxylic acid]

SMILES	Emax (NURR-1/RXRα) [%]	EC50 (NURR-1/RXRα) [nM]	Emax (NURR-1/RXRγ) [%]	EC50 (NURR-1/RXRγ) [nM]	hNurr1_RXRaFL Emax (%) (NURR-1/RXRα; [1])	hNurr1_RXRgFL Emax (%) (NURR-1/RXRγ; [1])
CC1(C(=O)O)CN(c2cccc(-c3ccc4c(c3)C(C)(C)CCC4(C)C)c2)C1 [Example 87]	69	> 5000	38	> 5000	–	–
